Key:
[1] = tested on: HEL cells; assay: Cytotoxicity in HEL cells: cell morphology; type: cell-based, human; settings: microscopically detectable alteration of cell morphology
[2] = tested on: herpesviruses and poxviruses; settings: EC50 in the μM range; cited from earlier work
[3] = tested on: VZV TK+ strain Oka; assay: microbe, parasite or virus in culture; type: cell-based, varicella-zoster virus; settings: Human alphaherpesvirus 3, Fibroblast, read-out: EC50 VZV TK+ strain Oka
[4] = tested on: Vaccinia virus Lederle strain; assay: microbe, parasite or virus in culture; type: cell-based
[5] = tested on: herpesviruses and poxviruses; settings: for Activity against herpesviruses and poxviruses: in vitro
[6] = tested on: VZV TK- strain YS/R; type: cell-based, varicella-zoster virus; settings: HEL fibroblasts
[7] = tested on: Feline herpesvirus; assay: Antiviral activity against feline herpesvirus in CRFK cells; type: cell-based
[8] = tested on: VZV; assay: Antiviral activity against VZV, strains summarised in text; type: cell-based, varicella-zoster virus; settings: for EC50: Human alphaherpesvirus 3, read-out: EC50 VZV, range over strains
[9] = tested on: HSV; assay: Antiviral activity against HSV, strains summarised in text; type: cell-based, herpes simplex virus; settings: for EC50: read-out: EC50 HSV, range over strains
[10] = tested on: HCMV; assay: Antiviral activity against HCMV, strains summarised in text; type: cell-based, human cytomegalovirus; settings: for EC50: Human betaherpesvirus 5, read-out: EC50 HCMV, range over strains
[11] = tested on: VZV TK+ strain YS; type: cell-based, varicella-zoster virus; settings: HEL fibroblasts

Q: For `Nc1nc2c(ncn2C[C@@H](CO)OCP(=O)(O)O)c(=O)[nH]1` [(S)-HPMPG, 9-(S)-[3-hydroxy-2-(phosphonomethoxy)propyl]guanine, reference compound], which “Cytotoxicity in HEL cells, cell morphology, MCC (minimum cytotoxic concentration)” value [1] is on record?
A: >100 μM

Q: What about the “Reported activity against HSV-1, HSV-2, VZV, CMV and vaccinia virus” value [2] of the same molecule?
A: active

Q: Which “Cytotoxicity in HEL cells, cell morphology, MCC (minimum cytotoxic concentration)” value [1] does the source give for `Nc1nc2c(ncn2C[C@H]2COP(=O)(O)CO2)c(=O)[nH]1` [(S)-cHPMPG, reference compound] here?
A: >100 μM

Q: For `Nc1nc2c(ncn2COCCO)c(=O)[nH]1` [Acyclovir, reference compound], which “Cytotoxicity in HEL cells, cell morphology, MCC (minimum cytotoxic concentration)” value [1] is on record?
A: >444 μM

Q: For `O=c1[nH]c(=O)n([C@H]2C[C@H](O)[C@@H](CO)O2)cc1/C=C/Br` [Brivudin, reference compound], which EC50 [3] is on record?
A: 10 ± 10 nM

Q: And the EC50 ([4]; Orthopoxvirus vaccinia, Fibroblast, read-out: EC50 Vaccinia virus Lederle)?
A: 15000 ± 17000 nM

Q: What about the “Cytotoxicity in HEL cells, cell morphology, MCC (minimum cytotoxic concentration)” value [1] of the same molecule?
A: >300 μM

Q: With `Nc1ccn(C[C@@H](CO)OCP(=O)(O)O)c(=O)n1.O.O` [Cidofovir, reference compound] as the molecule, how does the “Cytotoxicity in HEL cells, cell morphology, MCC (minimum cytotoxic concentration)” value [1] read?
A: >317 μM

Q: With `CCCCCCCCCCCCCCCCOCCCOP(=O)(CCOCCn1cnc2c(=O)[nH]cnc21)OCCCOCCCCCCCCCCCCCCCC` [Compound 3, Bis 3-(hexadecyloxypropyl) ester of 9-[2-(phosphonomethoxy)ethyl]hypoxanthine] as the molecule, how does the “Cytotoxicity in HEL cells, cell morphology, MCC (minimum cytotoxic concentration)” value [1] read?
A: ≥117 μM

Q: And the “Activity against herpesviruses and poxviruses” value [5]?
A: inactive

Q: With `CCCCCCCCCCCCCCCCOCCCOP(=O)(CO[C@H](CO)Cn1cnc2c(=O)[nH]cnc21)OCCCOCCCCCCCCCCCCCCCC` [Compound 13, Bis 3-(hexadecyloxypropyl) ester of 9-(S)-[3-hydroxy-2-(phosphonomethoxy)propyl]hypoxanthine] as the molecule, how does the “Cytotoxicity in HEL cells, cell morphology, MCC (minimum cytotoxic concentration)” value [1] read?
A: ≥23 μM

Q: What about the “Activity against herpesviruses and poxviruses” value [5] of the same molecule?
A: totally inactive

Q: Which “Selectivity index (ratio CC50 to EC50) VZV YS/R” value [6] does the source give for `CCCCCCCCCCCCCCCCOCCCOP(=O)(CO[C@H](CO)Cn1cnc2c(=O)[nH]c(N)nc21)OCCCOCCCCCCCCCCCCCCCC` [Compound 14, Bis 3-(hexadecyloxypropyl) ester of 9-(S)-[3-hydroxy-2-(phosphonomethoxy)propyl]guanine] here?
A: >57

Q: And the “Fold difference of EC50 versus parent compound (S)-HPMPG, feline herpesvirus” value ([7]; printed as lower than parent)?
A: 157 fold

Q: What about the “Fold difference of EC50 versus parent compound (S)-HPMPG, VACV” value [4] of the same molecule?
A: 41 fold

Q: What about the “Cytotoxicity in HEL cells, cell morphology, MCC (minimum cytotoxic concentration)” value [1] of the same molecule?
A: ≥22.6 μM

Q: What about the “Fold difference of EC50 versus parent compound (S)-HPMPG, VZV” value ([8]; printed as lower than parent) of the same molecule?
A: 7 fold

Q: And the “Fold difference of EC50 versus parent compound (S)-HPMPG, HSV” value ([9]; printed as lower than parent)?
A: 15- to 40 fold

Q: And the “Fold difference of EC50 versus parent compound (S)-HPMPG, HCMV” value ([10]; printed as lower than parent)?
A: 7 fold

Q: With `CCCCCCCCCCCCCCCCOCCCOP(=O)(O)CO[C@H](CO)Cn1cnc2c(=O)[nH]cnc21` [Compound 15, 3-(Hexadecyloxypropyl) ester of 9-(S)-[3-hydroxy-2-(phosphonomethoxy)propyl]hypoxanthine] as the molecule, how does the “Cytotoxicity in HEL cells, cell morphology, MCC (minimum cytotoxic concentration)” value [1] read?
A: ≥34 μM

Q: What about the “Activity against herpesviruses and poxviruses” value [5] of the same molecule?
A: totally inactive

Q: For `CCCCCCCCCCCCCCCCOCCCOP(=O)(O)CO[C@H](CO)Cn1cnc2c(=O)[nH]c(N)nc21` [Compound 16, 3-(Hexadecyloxypropyl) ester of 9-(S)-[3-hydroxy-2-(phosphonomethoxy)propyl]guanine], which “Activity against feline herpesvirus” value ([7]; CRFK cells) is on record?
A: inactive

Q: What about the “Cytotoxicity in HEL cells, cell morphology, MCC (minimum cytotoxic concentration)” value [1] of the same molecule?
A: ≥1.3 μM

Q: What about the EC50 [8] of the same molecule?
A: 1 to 2.5 nM

Q: What about the EC50 [9] of the same molecule?
A: 7 to 90 nM

Q: And the EC50 [10]?
A: 2 to 7 nM

Q: And the “SIs fold lower compared to compound 18” value ([5]; across viruses)?
A: 2- to 66 fold

Q: Which “Cytotoxicity in HEL cells, cell morphology, MCC (minimum cytotoxic concentration)” value [1] does the source give for `CCCCCCCCCCCCCCCCOCCCOP1(=O)CO[C@@H](Cn2cnc3c(=O)[nH]cnc32)CO1` (stereo partly drawn) [Compound 17, 3-(Hexadecyloxypropyl) ester of 9-{[(5S)-2-hydroxy-2-oxido-1,4,2-dioxaphosphinan-5-yl]methyl}hypoxanthine] here?
A: ≥7 μM

Q: And the “Activity against herpesviruses and poxviruses” value [5]?
A: totally inactive

Q: Which results are given for `CCCCCCCCCCCCCCCCOCCCOP1(=O)CO[C@@H](Cn2cnc3c(=O)[nH]c(N)nc32)CO1` (stereo partly drawn) [Compound 18, 3-(Hexadecyloxypropyl) ester of 9-{[(5S)-2-hydroxy-2-oxido-1,4,2-dioxaphosphinan-5-yl]methyl}guanine]?
A: Selectivity index (ratio CC50 to EC50) VZV YS [11]: 19,000; Cytotoxicity in HEL cells, cell morphology, MCC (minimum cytotoxic concentration) [1]: ≥171.3 μM; EC50 [8]: 1 to 2.5 nM; Selectivity index VZV, range over strains ([8]; ratio CC50 to EC50): 2700–19,000; Selectivity index HSV, range over strains ([9]; ratio CC50 to EC50): 211–559; EC50 [9]: 7 to 90 nM; EC50 [10]: 2 to 7 nM; Selectivity index HCMV, range over strains ([10]; ratio CC50 to EC50): 3800–9500

Q: Which “Cytotoxicity in HEL cells, cell morphology, MCC (minimum cytotoxic concentration)” value [1] does the source give for `Nc1nc(O)c2ncn(COC(CO)CO)c2n1` [Ganciclovir, reference compound] here?
A: >394 μM

— article PMC7115494 (European Journal of Medicinal Chemistry, 2012)
